Literature values in patent publication US20200245614A1, “AGROCHEMICAL EMULSIFIABLE CONCENTRATE COMPOSITION” (priority 2017, published 2020).

Conditions: n-octanol/water

Compound	LogPow value
CCCCOC(=O)OCCCC [Composition B-3, Di-n-butyl carbonate]	3.47
CC(C)COC(=O)CCCCC(=O)OCC(C)C [Composition B-4, Diisobutyl adipate]	3.70
CCCCCCCCCCCC(=O)OC [Composition B-5, Methyl laurate]	5.41
COCCOCCO [Composition C-1, Diethylene glycol monomethyl ether]	−1.18
OC1CCCCC1 [Composition C-4, Cyclohexanol]	1.2
O=C1CCCCC1 [Composition C-5, Cyclohexanone]	0.86
CCCCOCCOCCO [Composition C-6, Butyl diglycol]	0.56
COCC(C)O (stereo not shown) [Composition C-9, Propylene glycol monomethyl ether]	−0.342
CN1CCCC1=O [Composition C-10, N-methyl-2-pyrrolidone]	−0.38
COC(C)COC(C)CO (stereo not shown) [Composition C-11, Dipropylene glycol methyl ether]	−0.46
CC1COC(=O)O1 (stereo not shown) [Composition C-12, Propylene carbonate]	−0.5
O=C1CCCO1 [Composition C-13, γ-Butyrolactone]	−0.566
CCCCN1CCCC1=O [Composition C-16, N-Butylpyrrolidone]	1.27
COCCOCCOCCO [Composition C-17, Triethylene glycol monomethyl ether]	−1.12
CC(O)COc1ccccc1 (stereo not shown) [Composition C-19, Phenoxypropanol]	1.51
OCCOCc1ccccc1 [Composition C-20, Benzyl glycol]	1.11
COC(=O)C(C)CCC(=O)N(C)C (stereo not shown) [Composition C-21, 5-(Dimethylamino)-2-methyl-5-oxopentanoic acid methyl ester]	0.39
CCCCCCCC/C=C\CCCCCCCC(=O)OC [Composition C-22, Methyl oleate]	7.45
CCCCCCCCO [Composition C-24, Octanol]	3
CCCCOC(C)=O [Composition C-26, Butyl acetate]	1.82
CCCCOCCOCCOCCCC [Composition C-27, Dibutyl diglycol]	1.92
CCCCC(CC)COCCOCCO (stereo not shown) [Composition C-28, 2-ethylhexyl diglycol]	2
CC(C)=O [acetone]	−0.24
CO [methanol]	−0.82
CCC(C)=O [methyl ethyl ketone]	0.29
CCCCCO [pentanol]	1.51
Xylene [Composition B-2]	3.15

Same assay, conditions: n-octanol/water; listed as gamma-butyl lactone

Compound	LogPow value
O=C1CCCO1 [Composition C-13, γ-Butyrolactone]	−0.57
